# Test: in vitro
# Settings: rat, microsomes
# Experimental: Buffer solutions were prepared as follows: • a. Buffer A: 0.1 M monobasic potassium phosphate buffer containing 1.0 mM EDTA. • b. Buffer B: 0.1 M dibasic potassium phosphate buffer containing 1.0 mM EDTA. • c. Buffer C: 0.1 M potassium phosphate buffer containing 1.0 mM EDTA was adjusted to pH 7.4 by titrating 700 mL of Buffer B with Buffer A while monitoring with a pH meter. • 2. An NADPH stock solution (6 mM) was prepared by dissolving NADPH into Buffer C. • 3. Spiking solutions were prepared for the reference compound (ketanserin) and the test compounds as follows: • a. A 500 μM spiking solution of the reference compound (ketanserin) was generated by adding 10 μL of a 10 mM stock solution of ketanserin in DMSO into 190 μL acetonitrile. A 1.5 μM spiking solution in microsomes (0.75 mg/mL) was generated by adding 1.5 μL of the 500 μM spiking solution and 18.75 μL of 20 mg/mL rat liver microsomes into 479.75 μL of Buffer C while cooling with ice. • b. […] A 0.75 μM spiking solution in microsomes (0.75 mg/mL) was generated by adding 1.5 μL of the 250 μM spiking solution and 18.75 μL of 20 mg/mL rat liver microsomes into 479.75 μL of Buffer C while cooling with ice. • 4. 30 μL of 1.5 μM spiking solution containing 0.75 mg/mL microsomes solution was dispensed into assay plates designated for different time points (0 min, 5 min, 15 min, 30 min, and 45 min; or 0 min, 15 min, 30 min, 45 min, and 60 min as shown in Tables 1-5 below) while cooling with ice. • 5. For the 0 min time point assay plate, 135 μL of ACN containing IS followed immediately by 15 μL of the 6 mM NADPH stock solution were added to the wells of the 0 min assay plate. • 6. All assay plates other than the 0 min assay plate were pre-incubated at 37° C. for 5 min, and then 15 μL of the 6 mM NADPH stock solution was added to the wells of the assay plates to start the reaction and timing. At the appropriate time (5 min, 15 min, 30 min, 45 min, or 60 min), 135 μL of ACN containing IS was added to the wells of the corresponding assay plates, respectively, to stop the reaction. • 7. After quenching, the plates were shaken in a vibrator (IKA, MTS 2/4) for 10 min (600 rpm/min) and then centrifuged at 5594 g for 15 min (Thermo Multifuge×3R). • 8. After centrifugation, 50 μL of the supernatant from each well was transferred into a 96-well sample plate containing 50 μL of ultrapure water (Millipore, ZMQS50F01) for LC/MS analysis.
smiles,measurement,setting,value
"[2H]C1([2H])NC([2H])([2H])C([2H])(c2ccc(-n3cc4cccc(C(N)=O)c4n3)cc2)C([2H])([2H])C1([2H])[2H] (racemic) [Example 3, 2-(4-(piperidin-3-yl-2,2,3,4,4,5,5,6,6-d9)phenyl)-2H-indazole-7-carboxamide]",Percent Remaining (%) 0 min,"0 h, 0.5 µM, pH 7.4",100.00%
same,Percent Remaining (%) 15 min,"0.25 h, 0.5 µM, pH 7.4",92.77%
same,Percent Remaining (%) 30 min,"0.5 h, 0.5 µM, pH 7.4",82.19%
same,Percent Remaining (%) 45 min,"0.75 h, 0.5 µM, pH 7.4",74.60%
same,Percent Remaining (%) 60 min,"1 h, 0.5 µM, pH 7.4",69.31%
same,CLint scaled at 0.5 µM,"pH 7.4, Clint",22.7 mL/min/kg
same,half-life at 0.5 µM,"pH 7.4, T1/2",1.82 h

# — patent US11384062B2 (CombiPhos Catalysts, Inc., priority 2017, dated 2022)
